Source: patent publication US20230100559A1, “Compositions and Methods for Treatment of Disease by Manipulation of Serine Metabolism” (The Trustees of Princeton University, priority 2020, published 2023)
pIC50: −log10 of the molar value. “Also recorded” adds a separate entry of the source.

What was measured:
[1] = target: T1, SHMT2 (Homo sapiens, UniProt P34897); experiment: SHMT2 inhibition (Table 2); format: biochemical
T1 sequence (P34897 30-504): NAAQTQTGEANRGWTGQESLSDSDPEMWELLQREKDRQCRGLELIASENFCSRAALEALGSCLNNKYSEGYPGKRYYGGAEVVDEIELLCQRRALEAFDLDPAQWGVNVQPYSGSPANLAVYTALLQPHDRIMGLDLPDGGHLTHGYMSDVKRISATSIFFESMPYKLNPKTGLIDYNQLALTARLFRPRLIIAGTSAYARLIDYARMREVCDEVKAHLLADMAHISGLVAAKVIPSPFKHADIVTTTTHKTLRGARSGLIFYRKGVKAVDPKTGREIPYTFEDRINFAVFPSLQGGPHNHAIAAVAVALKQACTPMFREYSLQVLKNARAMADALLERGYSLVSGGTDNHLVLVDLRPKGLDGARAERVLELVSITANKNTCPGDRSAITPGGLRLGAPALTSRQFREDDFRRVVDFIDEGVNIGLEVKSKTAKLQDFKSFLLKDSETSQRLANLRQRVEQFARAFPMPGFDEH

[2] = target: T2, SHMT1 (Homo sapiens, UniProt P34896); experiment: SHMT1 inhibition (Table 2); format: biochemical
T2 sequence (P34896 1-483): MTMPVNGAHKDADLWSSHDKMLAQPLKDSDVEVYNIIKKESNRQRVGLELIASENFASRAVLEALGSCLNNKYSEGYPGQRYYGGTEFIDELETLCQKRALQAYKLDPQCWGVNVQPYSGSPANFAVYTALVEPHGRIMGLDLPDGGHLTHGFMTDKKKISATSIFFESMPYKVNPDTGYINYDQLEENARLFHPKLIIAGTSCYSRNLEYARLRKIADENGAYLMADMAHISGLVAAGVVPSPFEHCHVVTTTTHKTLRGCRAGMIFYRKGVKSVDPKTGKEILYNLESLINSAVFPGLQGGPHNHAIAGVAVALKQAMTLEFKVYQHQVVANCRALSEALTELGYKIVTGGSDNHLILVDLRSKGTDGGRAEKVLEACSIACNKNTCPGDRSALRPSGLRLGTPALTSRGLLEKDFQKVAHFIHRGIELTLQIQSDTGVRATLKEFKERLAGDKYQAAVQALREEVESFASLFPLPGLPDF

[3] = tested on: C2C12 cells; experiment: C2C12 cells treated with metformin, serine catabolism inhibition; format: cell-based; details: C2C12, 5 mM metformin, SHIN1 250 nM
Method: (§1) Adherent cells. Cells were seeded in 6 well plates overnight and then were treated with ETC inhibitors. Serine-free DMEM with 10% dialyzed FBS was supplemented with 400 µM [2,3,3, 2H]serine. Medium was replaced by the isotope tracing medium with corresponding drugs, and cells were incubated for 3 h. Medium was aspirated, and metabolism was quenched with extraction buffer (40:40:20 acetonitrile:methanol: water with 0.5% formic acid; 40 μl of extraction solvent per 1 μl packed cell volume)(Lu et al., 2018). Plates were placed on dry ice for 10 mins, and thereafter the extraction solution was neutralized with 15% NH4HCO3 (70 μl for 800 μl extraction buffer). Cells were then scraped off from plates by using a cell lifter (Corning 3008), transferred into Eppendorf tubes and centrifuged in a benchtop microfuge at maximum speed for 30 min at 4° C. Supernatant was transferred to LC-MS vials for analysis.
(§2) Cell Proliferation Assays. Cells were seeded in seeded in 96 well plates (Corning 3603) for overnight attachment. Medium (with or without drugs) was changed next day, and cell numbers were recorded using Thermofisher CyQUANT kit.

[4] = tested on: HCT116 cells; experiment: Cell proliferation assay, HCT116; format: cell-based
Method: as §2

[5] = tested on: HCT116 xenograft tumors; experiment: HCT116 xenograft tumors, metabolomics and [2,3,3-2H]serine tracing; format: in vivo, mice
Method: Mouse Xenograft and allograft. For tumor xenograft tracing experiments, 6- to 7-week-old male CD1/nude mice were injected in the rear flanks with HCT-116 (1×10^6 cells in 100 μL 1:1 PBS:Matrigel). For tumor allograft tracing experiment, 6- to 8-wk-old male C57BL6 mice were injected in the rear flank with KrasLSL.G12D/+x p53R172H/+x PdxCretg/+ pancreatic tumor tissue suspension (200 μL 1:1 DMEM:Matrigel). Jugular vein catheterization surgery was performed when tumor size reached 250 mm3 [volume=1/2 (length×width×height)]. […] Tracing experiments were performed after 1 week of post-surgery monitoring. Tumors were removed and immediately clamped to aluminum foil using Wollenberger clamp and stored in liquid nitrogen. For Long term storage, tissues were kept in −80° C. until future sample preparation.
Metabolites extraction from tissue, tumors and serum. Tissues and tumors were collected from mice and immediately clamped into liquid nitrogen using Wollenberger clamp, tissue were stored in −80° C. Frozen tissues were transferred into 2 ml Eppendorf tubes, which are precooled on dry ice, and pulverized by using cyromill. The resulting tissue powder was weighed (around 10 mg) and mixed well by vortexing in extraction buffer (40 μL extraction buffer per mg tissue). The extraction solution was neutralized with NH4HCO3 as above and centrifuged in a microfuge at maximum speed for 30 min at 4° C. Supernatant was transferred to LC-MS vials for analysis.
IACS-10759 is a potent mitochondrial complex I inhibitor with efficacy in inhibiting tumor growth and inducing apoptosis in models of brain cancer and acute myeloid leukemia. Molina, J. R. et al., Nat. Med. 24, 1036-1046 (2018). […] To check whether circulating serine contributes NADH when respiration is impaired in vivo, [2,3,3-^2H]serine was infused into tumor bearing mice.

[6] = target: T3, MTHFD2 (Homo sapiens, UniProt P13995); experiment: Enzymatic assay for MTHFD2 with increasing NADH; format: biochemical
T3 construct: purchased Raze Therapeutics (gift, not a catalogue product)
T3 sequence (P13995 36-350): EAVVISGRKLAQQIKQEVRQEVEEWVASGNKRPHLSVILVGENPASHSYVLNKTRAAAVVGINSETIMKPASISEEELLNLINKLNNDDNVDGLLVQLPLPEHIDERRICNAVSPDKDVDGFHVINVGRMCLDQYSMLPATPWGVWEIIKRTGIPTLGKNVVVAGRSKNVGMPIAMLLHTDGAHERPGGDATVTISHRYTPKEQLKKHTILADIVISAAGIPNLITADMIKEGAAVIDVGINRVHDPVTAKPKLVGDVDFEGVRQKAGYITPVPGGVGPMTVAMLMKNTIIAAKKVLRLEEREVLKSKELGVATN
Method: Enzymatic Assay for MTHFD2. NAD (Sigma N0632), NADH (Sigma N8129) and 5, 10-meTHF (Schircks Laboratories, 16.226) solution were freshly prepared each time in water. Reaction mixtures consisted of 50 mM KH2PO4 pH 7.4, 5 mM dithiothreitol (DTT), 5% DMSO, and 0.005 mg/mL MTHFD2 (obtained from Raze Therapeutics), and NAD and NADH as indicated in the Figures. Reaction mixtures were incubated for 5 min at 37° C. before initiation of the reaction by addition of 5,10-meTHF to a final concentration of 0.4 mM using multichannel. The plate was mixed for 5 s in the plate reader (Biotek Synergy HT), and the rate of change in absorbance at 340 nm due to NADH accumulation was recorded over the duration of linear NADH accumulation.
Enzymatic Assay for MDH. NAD and NADH solutions were freshly prepared in water; malate solution was prepared in 50 mM Tris-HCl and adjusted pH to 7.6 with 10 M KOH. […] The plate was mixed for 5 s in the plate reader, and absorbance at 340 nm recorded as above.
Enzymatic assay for PDH and KGDH: Pyruvate dehydrogenase and alpha-ketoglutarate dehydrogenase solutions were freshly prepared to a concentration 0.075 unit/ml with buffer containing 20 mM sodium phosphate and 1 mM MgCl2, pH7.2. […] The plate was mixed for 5 s in the plate reader, and absorbance at 340 nm recorded as above.

[7] = tested on: HCT116 cells; experiment: NAD2H labeling from [2,3,3-2H]serine in cultured cells; format: cell-based
Method: as §1
LC-MS. […] Solvent A is 95:5 water: acetonitrile with 20 mM ammonium acetate and 20 mM ammonium hydroxide at pH 9.4, and solvent B is acetonitrile. The gradient was 0 min, 85% B; 2 min, 85% B; 3 min, 60% B; 9 min, 60% B; 9.5 min, 35% B; 13 min, 5% B; 15.5 min, 5% B; 16 min, 85% B; 20 min, stop run. Injection volume was 15 μL. The Q-Exactive Plus mass spectrometer was operated in negative ion mode scanning from m/z 70-1000 with a resolution (at m/z 200) of 140,000 (AGC target 3e6, Maximum IT 200 ms) (Wang et al., 2019). A second scan from m/z 640-765 with a resolution (at m/z 200) of 35,000 (AGC target 5e5, maximum IT 200 ms) was used to measure NAD(P), NAD(P)H, and their labeling. The purpose of the second scan was to enhance sensitivity for NAD(P)(H) by restricting the range of ions in the orbitrap and to maximize the accuracy of isotope ratios by decreasing the scan range and mass resolution (Su et al., 2017).
Calculation of 2H-serine contribution to malate, aspartate, and NADH: For malate and aspartate, the 2H-labeling fraction was measured directly (fractional size of 2H-peak relative to sum of all peaks, after isotope correction as above). For NADH, the 2H-labeling fraction was measured based on the active hydride labeling (x), which was determined from the labeling pattern of NAD+ and NADH by least square fitting in MATLAB of the observed experimental data (after natural isotope correction) to the below vectors (Liu et al., 2016a).

[8] = tested on: liver NADH/NAD ratio; experiment: Serine/metformin drinking water, liver metabolomics; format: in vivo, mice; details: 5% serine or 0.25% metformin drinking water for 2 weeks
[9] = IACS-10759 10 mg/kg gavage every day for 7 days, CD-1 nude mice
[10] = cultured cells, complex I inhibitor added

## Cc1n[nH]c2c1C(c1cc(Cl)cc(Cl)c1)(C1CCC1)C(C#N)=C(N)O2 (centres unmarked) [HK-10]
[1]
  pIC50: 5.92
[2]
  pIC50: 6.23

## Cc1n[nH]c2c1C(c1cc(Cl)cc(Cl)c1)(C(C)C)C(C#N)=C(N)O2 (centres unmarked) [HK-14]
[1]
  pIC50: 6.88
[2]
  pIC50: 7.17

## Cc1n[nH]c2c1C(c1cc(Cl)cc(C(F)(F)F)c1)(C(C)C)C(C#N)=C(N)O2 (centres unmarked) [HK-15]
[1]
  pIC50: 7.46
[2]
  pIC50: 7.70

## Cc1n[nH]c2c1C(c1cc(N3CCCC3)cc(C(F)(F)F)c1)(C(C)C)C(C#N)=C(N)O2 (centres unmarked) [HK-X1]
[1]
  pIC50: 7.18
[2]
  pIC50: 7.89

## Cc1[nH]nc2c1C(c1cc(CO)cc(-c3ccccc3)c1)(C(C)C)C(C#N)=C(N)O2 (centres unmarked) [HK-X2 (SHIN1)]
[3]
  aspartate: enhances aspartate
  cell growth / tolerance of metformin: restores; also recorded: better tolerated metformin
[4]; HCT116, in the presence of metformin
  cell proliferation / growth: enhances growth; also recorded: augmented proliferation
[4]; HCT116, in the presence of phenformin or rotenone
  cell proliferation / growth: enhances growth; also recorded: augmented proliferation
[4]; HCT116, standard tissue culture conditions
  cell proliferation: decreased cell proliferation
[4]; HCT116 WT, hypoxia (0.5% O2), low doses of SHIN1
  cell growth: modestly increased cell growth

## Cc1nc(-c2nc(-c3ccc(OC(F)(F)F)cc3)no2)nn1Cc1cccc(N2CCC(S(C)(=O)=O)CC2)c1 [IACS-10759]
[5]; [9]
  NADH/NAD ratio of tumors: increased
  intra-tumor lactate level: increased
[5]; IACS-10759 10 mg/kg, 2.5 hours serine infusion
  2H-malate labeling from [2,3,3-2H]serine in tumors: increased

## NC(=O)C1=CN([C@@H]2O[C@H](COP(=O)(O)OP(=O)(O)OC[C@H]3O[C@@H](n4cnc5c(N)ncnc54)[C@H](O)[C@@H]3O)[C@@H](O)[C@H]2O)C=CC1 [NADH]
[6]; NADH as competitive (product) inhibitor, adequate NAD
  NADH level up to which MTHFD2 maintains full activity: up to 200 μM
[6]; product inhibition by NADH
  sensitivity of MTHFD2 to NADH, less than PDH, KGDH and malate dehydrogenase: at least 10 fold

## N#C/C(=C\c1cn(-c2ccccc2)c2ccccc12)C(=O)O [UK5099]
[7]; metformin-treated cells with pyruvate
  block of the pyruvate effect (rescue of NADH phenotypes): does not block; also recorded: not blocked

## CC1=C(C)C(=O)C(C)=C(C)C1=O [duroquinone]
[7]; added to metformin-treated cells (HCT116, 5 mM metformin)
  fractional contribution of serine to NADH: decreased

## CN(C)C(=N)N=C(N)N [metformin, reference compound]
[7]; [10]
  fractional contribution of serine to NADH: dramatically elevated
[8]
  NADH/NAD ratio in liver: increased; also recorded: significantly increase

## [H]/N=C(/N)N/C(=N/[H])NCCc1ccccc1 [phenformin]
[7]; [10]
  fractional contribution of serine to NADH: dramatically elevated

## N[C@@H](CO)C(=O)O [serine]
[8]
  NADH/NAD ratio in liver: significantly increase
[8]; listed as Serine
  NADH/NAD ratio in liver: increased
